Several values for one entry are separate records, joined by “and”; a condition that tells them apart may be missing. Equal entries are not always repeated. Where two headings read alike, the source gives them in different places.
Columns and labels:
Test in all cases: biochemical
Format in all cases: biochemical
BChE = BChE (Homo sapiens, UniProt P06276)
Method: (§1) Acetylthiocholine iodide (AChI) and butyrylthiocholine iodide (BChI) were used as substrates for the reaction. 5,5′-Dithio-bis(2-nitro-benzoic)acid (DTNB) was used for the measurement of the AChE/BChE activities. Briefly, 1.0 ml of Tris/HCl buffer (1.0 M, pH 8.0), and 10 µL of sample solution were dissolved in deionized water at different concentrations and 50 µL AChE/BChE solution were mixed and incubated for 10 min at 25 °C. Next 50 µL of DTNB (0.5 mM) was added. The reaction was then initiated by the addition of 50 µL of AChI or BChI.

AChE = AChE (Homo sapiens, UniProt P22303); details: for AChE/BChE (proportion of AChE to BChE, selectivity): ratio of Ki AChE to Ki BChE
Sequence of AChE (P22303 32-614): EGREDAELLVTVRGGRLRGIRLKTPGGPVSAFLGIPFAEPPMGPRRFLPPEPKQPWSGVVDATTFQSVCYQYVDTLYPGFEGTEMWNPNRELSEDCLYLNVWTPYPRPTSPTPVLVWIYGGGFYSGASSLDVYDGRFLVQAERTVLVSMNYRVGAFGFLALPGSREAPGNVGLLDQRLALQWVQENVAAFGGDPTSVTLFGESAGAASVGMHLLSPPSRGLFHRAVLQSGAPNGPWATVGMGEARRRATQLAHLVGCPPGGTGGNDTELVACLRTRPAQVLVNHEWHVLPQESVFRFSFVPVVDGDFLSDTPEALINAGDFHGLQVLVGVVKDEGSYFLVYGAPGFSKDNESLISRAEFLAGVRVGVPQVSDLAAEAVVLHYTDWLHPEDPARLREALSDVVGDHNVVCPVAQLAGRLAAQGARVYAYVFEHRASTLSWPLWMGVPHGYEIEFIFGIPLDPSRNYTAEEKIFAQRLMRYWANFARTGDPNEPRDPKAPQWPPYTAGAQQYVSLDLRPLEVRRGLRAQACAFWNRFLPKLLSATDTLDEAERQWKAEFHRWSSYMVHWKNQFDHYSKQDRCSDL
Method: as §1

hCA II = target: T1, hCA II (Homo sapiens, UniProt P00918)
T1 construct: from tissue; host or cells: fresh human erythrocytes
Method: (§2) CA activity was determined using the previously described spectrophotometric procedure of Verpoorte et al. as explained previously.[21] ^, [57] ^, [58] […] The quantity of protein was measured according to the previously described by Bradford method.[61–64] and bovine serum albumin was used as the standard.[65] ^, [66] After the purification method of the CA isoforms, samples were subjected to SDS polyacrylamide gel electrophoresis (SDS-PAGE).[67–69] […] The IC50 values were calculated from activity (%) against compounds inhibition.[72–74] Three various concentrations were used to calculate Ki values.[75–77]

hCA I = target: T2, hCA I (Homo sapiens, UniProt P00915)
T2 construct: from tissue; host or cells: fresh human erythrocytes
T2 sequence (P00915 whole entry): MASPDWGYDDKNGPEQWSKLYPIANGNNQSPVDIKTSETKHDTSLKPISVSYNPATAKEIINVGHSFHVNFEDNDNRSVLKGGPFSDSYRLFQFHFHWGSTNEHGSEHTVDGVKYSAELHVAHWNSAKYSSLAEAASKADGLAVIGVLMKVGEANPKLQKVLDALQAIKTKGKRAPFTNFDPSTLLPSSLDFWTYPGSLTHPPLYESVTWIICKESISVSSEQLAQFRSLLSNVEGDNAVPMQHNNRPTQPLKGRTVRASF
Method: as §2

[1] = Ellman, Tris/HCl pH 8.0, 25 °C, read-out: IC50 BChE
[2] = Ellman, Tris/HCl pH 8.0, 25 °C, read-out: IC50 AChE
[3] = purified from human erythrocytes, PNA substrate, 22 °C, read-out: IC50 hCA II
[4] = three concentrations used, read-out: Ki hCA II
[5] = purified from human erythrocytes, PNA substrate, 22 °C, read-out: IC50 hCA I
[6] = three concentrations used, read-out: Ki hCA I

Sequence of BChE (P06276 29-602): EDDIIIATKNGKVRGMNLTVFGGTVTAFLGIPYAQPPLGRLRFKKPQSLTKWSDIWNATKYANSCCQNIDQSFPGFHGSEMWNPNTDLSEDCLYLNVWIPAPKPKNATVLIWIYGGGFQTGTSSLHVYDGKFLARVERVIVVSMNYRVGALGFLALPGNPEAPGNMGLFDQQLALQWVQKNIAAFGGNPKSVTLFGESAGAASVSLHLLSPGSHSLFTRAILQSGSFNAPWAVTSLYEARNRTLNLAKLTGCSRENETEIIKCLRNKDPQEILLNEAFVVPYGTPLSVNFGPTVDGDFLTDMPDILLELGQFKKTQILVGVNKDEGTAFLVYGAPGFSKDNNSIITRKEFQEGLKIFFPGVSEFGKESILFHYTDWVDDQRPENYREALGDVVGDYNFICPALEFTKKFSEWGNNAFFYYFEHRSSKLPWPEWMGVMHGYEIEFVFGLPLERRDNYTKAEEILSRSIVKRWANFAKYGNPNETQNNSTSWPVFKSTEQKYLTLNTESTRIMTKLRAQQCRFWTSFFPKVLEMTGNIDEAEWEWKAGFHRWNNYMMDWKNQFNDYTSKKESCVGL

Row | SMILES | IC50 (BChE; [1]) | Ki (BChE; read-out: Ki BChE) | IC50 (AChE; [2]) | AChE/BChE (proportion of AChE to BChE, selectivity) (AChE) | Ki (AChE; read-out: Ki AChE) | IC50 (hCA II; [3]) | Ki (hCA II; [4]) | IC50 (hCA I; [5]) | Ki (hCA I; [6]) | IC50 (BChE) | Ki (BChE) | IC50 (AChE) | Ki (AChE) | IC50 (hCA II) | Ki (hCA II) | IC50 (hCA I) | Ki (hCA I) | fold of inhibitory activity against AChE/BChE than that of TAC (AChE; AChE/BChE selectivity relative to TAC)
1 | S=c1sc2ccccc2n1CN1CCOCC1 [Compound 1, N-oxazinomethylbenzothiazoline-2-thione] | 88 nM | 32 ± 7 nM | 51 nM | 0.812 | 26 ± 5 nM | 104 nM | 81 ± 19 nM | 79 nM | 108 ± 35 nM |  |  |  |  |  |  |  |  | 
2 | S=c1sc2ccccc2n1CN1CCCCC1 [Compound 4, N-Piperidinomethylbenzothiazoline-2-thione] |  |  | 36 nM | 0.439 | 18 ± 2 nM | 99 nM | 105 ± 25 nM | 86 nM | 86 ± 40 nM | 82 nM | 41 ± 13 nM |  |  |  |  |  |  | 
3 | CCN(CC)Cn1c(=S)sc2ccccc21 [Compound 5, N-diethylaminomethylbenzothiazoline-2-thione] |  |  |  | 0.666 |  |  |  |  |  | 83 nM | 51 ± 9 nM | 52 nM | 34 ± 9 nM | 98 nM | 100 ± 24 nM | 82 nM | 70 ± 15 nM | 
4 | CCN(CC)Cn1c(=S)oc2ccccc21 [Compound 6, N-diethylaminomethylbenzoxazoline-2-thione] |  |  | 44 nM | 1.500 | 45 ± 11 nM | 118 nM | 115 ± 28 nM | 102 nM | 123 ± 48 nM | 80 nM | 30 ± 3 nM |  |  |  |  |  |  | 
5 | S=c1oc2ccccc2n1CN1CCOCC1 [Compound 8, N-morfolinomethylbenzoxazoline-2-thion] | 48 nM | 23 ± 3 nM | 38 nM | 1.391 | 32 ± 6 nM | 119 nM | 121 ± 40 nM | 94 nM | 58 ± 15 nM |  |  |  |  |  |  |  |  | 
6 | S=c1oc2ccccc2n1CN1CCOC1 [Compound 9, N-oxazolidinomethylbenzoxazoline-2-thione] | 84 nM | 80 ± 9 nM | 62 nM | 0.975 | 78 ± 36 nM | 121 nM | 135 ± 33 nM | 103 nM | 76 ± 20 nM |  |  |  |  |  |  |  |  | 
7 | CC(C)OCn1c(=S)oc2ccccc21 [Compound 13, N-isopropoxymethylbenzoxazoline-2-thione] |  |  | 63 nM | 0.971 | 34 ± 5 nM | 122 nM | 94 ± 37 nM | 105 nM | 90 ± 23 nM | 83 nM | 35 ± 4 nM |  |  |  |  |  |  | 
8 | COCCOCn1c(=S)oc2ccccc21 [Compound 14, N-(methoxyethoxy)methyl-benzoxazoline-2-thione] |  |  | 38 nM | 0.388 and 0.383 | 23 ± 4 nM | 128 nM | 142 ± 56 nM | 112 nM | 119 ± 53 nM | 68 nM | 60 ± 13 nM |  |  |  |  |  |  | 2.22 fold
9 | COCCOCNc1nccs1 [Compound 15, 2-(methoxyethoxy) methylaminothiazole] | 109 nM | 45 ± 14 nM | 43 nM | 0.555 | 25 ± 3 nM | 158 nM | 193 ± 79 nM | 128 nM | 118 ± 27 nM |  |  |  |  |  |  |  |  | 
10 | CC(C)OCNc1nccs1 [Compound 16, 2-isopropoxymethylaminothiazole] |  |  | 76 nM | 0.763 | 42 ± 4 nM | 167 nM | 162 ± 29 nM | 156 nM | 132 ± 30 nM | 127 nM | 55 ± 12 nM |  |  |  |  |  |  | 
11 | COCNc1nccs1 [Compound 17, 2-(methoxy)methylaminothiazole] |  |  | 80 nM | 1.285 | 54 ± 10 nM | 187 nM | 215 ± 40 nM | 142 nM | 157 ± 38 nM | 144 nM | 42 ± 20 nM |  |  |  |  |  |  | 
